# Experimental data taken from US7247634B2, “Rifamycin derivatives effective against drug-resistant microbes” (Cumbre Pharmaceuticals Inc., priority 2004, dated 2007).
# Experiments:
# Assay type in all cases: cell-based
# [1] = system: Streptococcus pyogenes ATCC19615; test: MIC, microbroth dilution (NCCLS); settings: rifS strain, THY Broth, 37° C., read-out: Antimicrobial activity (MIC)
# [2] = system: Enterococcus faecalis ATCC29212; test: MIC, microbroth dilution (NCCLS); settings: rifS strain, BHI Broth, 37° C., read-out: Antimicrobial activity (MIC)
# [3] = system: Escherichia coli ATCC25922; test: MIC, microbroth dilution (NCCLS); settings: rifS strain, Cation-Adjusted Mueller-Hinton Broth, 37° C., read-out: Antimicrobial activity (MIC)
# [4] = system: Staphylococcus aureus ATCC29213 rpoB^D417Y; test: microbe, parasite or virus in culture; settings: ATCC29213, read-out: Antimicrobial activity (MIC)
# Protocol: (§1) Representative compounds were assayed for antimicrobial activity as follows: Minimum Inhibitory Concentrations (“MICs”) were determined by the microbroth dilution method as per NCCLS guidelines (National Committee for Clinical Laboratory Standards. 2000. Methods for dilution antimicrobial susceptibility tests for bacteria that grow aerobically, 5th ed. M7-A5. National Committee for Clinical Laboratory Standards, Wayne, Pa.), except that all growth incubations were conducted at 37° C. Bacterial cultures were tested in the following bacteriological media: S. aureus, S. epidermidis, and E. coli in Cation-Adjusted Mueller-Hinton Broth, S. pneumoniae in THY Broth supplemented with 1 mg/mL catalase under 5% CO2 atmosphere, S. pyogenes in THY Broth, E. faecalis in BHI Broth, H. influenzae in BHI Broth supplemented with 0.75 μL of 1 mg/mL NAD and 150 μL of 1 mg/ml hematin per 5 mL, and M. smegmatis in Middlebrook Broth plus ADC Enrichment.
# (§2) S. aureus ATCC 29213 RpoB^H418Y is a rifampin-resistant strain with a mutation in RNA polymerase, the biological target of rifamycin antibiotics. […] S. aureus EN1252a gyrA^S84L grlA^S80F is a quinolone-resistant strain due to double mutations to DNA gyrase and topoisomerase IV, the two biological targets for quinolone antibiotics.
# [5] = system: Staphylococcus aureus ATCC29213 rpoB^H418Y; test: microbe, parasite or virus in culture; settings: ATCC29213, read-out: Antimicrobial activity (MIC)
# Protocol: as §1, §2
# [6] = system: Staphylococcus aureus EN1252a gyrA^S84L grlA^S80F; test: microbe, parasite or virus in culture; settings: read-out: Antimicrobial activity (MIC)
# Protocol: as §1, §2
# [7] = system: Mycobacterium smegmatis ATCC700084; test: MIC, microbroth dilution (NCCLS); settings: Mycolicibacterium smegmatis, rifS strain, Middlebrook Broth plus ADC Enrichment, 37° C., read-out: Antimicrobial activity (MIC)
# [8] = system: Staphylococcus aureus ATCC29213; test: MIC, microbroth dilution (NCCLS); settings: rifS strain, Cation-Adjusted Mueller-Hinton Broth, 37° C., read-out: Antimicrobial activity (MIC)
# [9] = system: Streptococcus pneumoniae ATCC6303; test: MIC, microbroth dilution (NCCLS); settings: rifS strain, THY Broth with 1 mg/mL catalase, 5% CO2, 37° C., read-out: Antimicrobial activity (MIC)
# [10] = system: Staphylococcus epidermidis ATCC12228; test: MIC, microbroth dilution (NCCLS); settings: rifS strain, Cation-Adjusted Mueller-Hinton Broth, 37° C., read-out: Antimicrobial activity (MIC)
# [11] = system: Haemophilus influenzae ATCC10211; test: MIC, microbroth dilution (NCCLS); settings: rifS strain, BHI Broth with NAD and hematin, 37° C., read-out: Antimicrobial activity (MIC)
Structure (SMILES),MIC [1] [µg/mL],MIC [2] [µg/mL],MIC [3] [µg/mL],MIC [4] [µg/mL],MIC [5] [µg/mL],MIC [6] [µg/mL],MIC [7] [µg/mL],MIC [8] [µg/mL],MIC [9] [µg/mL],MIC [10] [µg/mL],MIC [11] [µg/mL]
COc1c(N2CCC(C3(N(C)C4CCN(C5=C6NC(=O)/C(C)=C\C=C\[C@H](C)[C@H](O)[C@@H](C)[C@@H](O)[C@@H](C)[C@H](OC(C)=O)[C@H](C)[C@@H](OC)/C=C/O[C@@]7(C)Oc8c(C)c(O)c(c(c8C7=O)C5=O)C6=O)CC4)CC3)C2)c(F)cc2c(=O)c(C(=O)O)cn(C3CC3)c12 (mixture of isomers) [Example 41],0.008 to 0.063,2 to 32,0.125 to 8,0.06 to 32,0.06 to 16,0.004 to 0.5,0.5 to 64,0.004 to 0.5,0.008 to 0.125,0.008 to 0.063,0.125 to 2
"CO[C@H]1/C=C/O[C@@]2(C)Oc3c(C)c(O)c4c(c3C2=O)C(=O)C(N2CC(C(=O)NC3CCN(c5c(F)cc6c(=O)c(C(=O)O)cn(C7CC7)c6c5Cl)C3)C2)=C(NC(=O)/C(C)=C\C=C\[C@H](C)[C@H](O)[C@@H](C)[C@@H](O)[C@@H](C)[C@H](OC(C)=O)[C@@H]1C)C4=O (mixture of isomers) [Example 43, (R/S)-3-{3-[1-(3-Carboxy-8-chloro-1-cyclopropyl-6-fluoro-4-oxo-1,4-dihydroquinolin-7-yl)-pyrrolidin-3-ylcarbamoyl]-azetidin-1-yl}rifamycin S]",0.008 to 0.063,2 to 32,0.125 to 8,0.06 to 32,0.06 to 16,0.004 to 0.5,0.5 to 64,0.004 to 0.5,0.008 to 0.125,0.008 to 0.063,0.125 to 2
"COc1c(N2CCC(NC(=O)C3CN(C4=C5NC(=O)/C(C)=C\C=C\[C@H](C)[C@H](O)[C@@H](C)[C@@H](O)[C@@H](C)[C@H](OC(C)=O)[C@H](C)[C@@H](OC)/C=C/O[C@@]6(C)Oc7c(C)c(O)c(c(c7C6=O)C4=O)C5=O)C3)C2)c(F)cc2c(=O)c(C(=O)O)cn(C3CC3)c12 (mixture of isomers) [Example 44, (R/S)-3-{3-[1-(3-Carboxy-1-cyclopropyl-6-fluoro-8-methoxy-4-oxo-1,4-dihydroquinolin-7-yl)-pyrrolidin-3-ylcarbamoyl]-azetidin-1-yl}rifamycin S]",0.008 to 0.063,2 to 32,0.125 to 8,0.06 to 32,0.06 to 16,0.004 to 0.5,0.5 to 64,0.004 to 0.5,0.008 to 0.125,0.008 to 0.063,0.125 to 2
"CO[C@H]1/C=C/O[C@@]2(C)Oc3c(C)c(O)c4c(c3C2=O)C(=O)C(N2CCC(C(=O)NC3CCN(c5c(F)cc6c(=O)c(C(=O)O)cn(C7CC7)c6c5Cl)C3)CC2)=C(NC(=O)/C(C)=C\C=C\[C@H](C)[C@H](O)[C@@H](C)[C@@H](O)[C@@H](C)[C@H](OC(C)=O)[C@@H]1C)C4=O (mixture of isomers) [Example 49, (R/S)-3-{4-[1-(3-Carboxy-8-chloro-1-cyclopropyl-6-fluoro-4-oxo-1,4-dihydroquinolin-7-yl)-pyrrolidin-3-ylcarbamoyl]-piperidin-1-yl}rifamycin S]",0.008 to 0.063,2 to 32,0.125 to 8,0.06 to 32,0.06 to 16,0.004 to 0.5,0.5 to 64,0.004 to 0.5,0.008 to 0.125,0.008 to 0.063,0.125 to 2
"COc1c(N2CCC(NC(=O)C3CCN(C4=C5NC(=O)/C(C)=C\C=C\[C@H](C)[C@H](O)[C@@H](C)[C@@H](O)[C@@H](C)[C@H](OC(C)=O)[C@H](C)[C@@H](OC)/C=C/O[C@@]6(C)Oc7c(C)c(O)c(c(c7C6=O)C4=O)C5=O)CC3)C2)c(F)cc2c(=O)c(C(=O)O)cn(C3CC3)c12 (mixture of isomers) [Example 50, (R/S)-3-{4-[1-(3-Carboxy-1-cyclopropyl-6-fluoro-8-methoxy-4-oxo-1,4-dihydroquinolin-7-yl)-pyrrolidin-3-ylcarbamoyl]-piperidin-1-yl}rifamycin S]",0.008 to 0.063,2 to 32,0.125 to 8,0.06 to 32,0.06 to 16,0.004 to 0.5,0.5 to 64,0.004 to 0.5,0.008 to 0.125,0.008 to 0.063,0.125 to 2
COc1c(N2CCCC(NC(=O)C3CCN(C4=C5NC(=O)/C(C)=C\C=C\[C@H](C)[C@H](O)[C@@H](C)[C@@H](O)[C@@H](C)[C@H](OC(C)=O)[C@H](C)[C@@H](OC)/C=C/O[C@@]6(C)Oc7c(C)c(O)c(c(c7C6=O)C4=O)C5=O)CC3)C2)c(F)cc2c(=O)c(C(=O)O)cn(C3CC3)c12 (mixture of isomers) [Example 52],0.008 to 0.063,2 to 32,0.125 to 8,0.06 to 32,0.06 to 16,0.004 to 0.5,0.5 to 64,0.004 to 0.5,0.008 to 0.125,0.008 to 0.063,0.125 to 2
CO[C@H]1/C=C/O[C@@]2(C)Oc3c(C)c(O)c4c(c3C2=O)C(=O)C(N2CCN(C3CCN(c5nc6c(cc5F)c(=O)c(C(=O)O)cn6-c5ccc(F)cc5F)C3)CC2)=C(NC(=O)/C(C)=C\C=C\[C@H](C)[C@H](O)[C@@H](C)[C@@H](O)[C@@H](C)[C@H](OC(C)=O)[C@@H]1C)C4=O (mixture of isomers) [Example 54],0.008 to 0.063,2 to 32,0.125 to 8,0.06 to 32,0.06 to 16,0.004 to 0.5,0.5 to 64,0.004 to 0.5,0.008 to 0.125,0.008 to 0.063,0.125 to 2
"COc1c(N2CCC(C3(N4CCN(C5=C6NC(=O)/C(C)=C\C=C\[C@H](C)[C@H](O)[C@@H](C)[C@@H](O)[C@@H](C)[C@H](OC(C)=O)[C@H](C)[C@@H](OC)/C=C/O[C@@]7(C)Oc8c(C)c(O)c(c(c8C7=O)C5=O)C6=O)CC4)CC3)C2)c(F)cc2c(=O)c(C(=O)O)cn(C3CC3)c12 (mixture of isomers) [Example 56, (R/S)-3-{4-[1-(3-Carboxy-1-cyclopropyl-6-fluoro-8-methoxy-4-oxo-1,4-dihydroquinoline-7-yl)-pyrrolidin-3-yl-cyclopropyl]-piperazin-1-yl}-rifamycin S]",0.008 to 0.063,2 to 32,0.125 to 8,0.06 to 32,0.06 to 16,0.004 to 0.5,0.5 to 64,0.004 to 0.5,0.008 to 0.125,0.008 to 0.063,0.125 to 2
CO[C@H]1/C=C/O[C@@]2(C)Oc3c(C)c(O)c4c(c3C2=O)C(=O)C(N2CCC(N(C)C3(C5CCN(c6nc7c(cc6F)c(=O)c(C(=O)O)cn7-c6ccc(F)cc6F)C5)CC3)CC2)=C(NC(=O)/C(C)=C\C=C\[C@H](C)[C@H](O)[C@@H](C)[C@@H](O)[C@@H](C)[C@H](OC(C)=O)[C@@H]1C)C4=O (mixture of isomers) [Example 58],0.008 to 0.063,2 to 32,0.125 to 8,0.06 to 32,0.06 to 16,0.004 to 0.5,0.5 to 64,0.004 to 0.5,0.008 to 0.125,0.008 to 0.063,0.125 to 2
"CON=C1CN(c2nc3c(cc2F)c(=O)c(C(=O)O)cn3C2CC2)CC1CNC1CCN(C2=C3NC(=O)/C(C)=C\C=C\[C@H](C)[C@H](O)[C@@H](C)[C@@H](O)[C@@H](C)[C@H](OC(C)=O)[C@H](C)[C@@H](OC)/C=C/O[C@@]4(C)Oc5c(C)c(O)c(c(c5C4=O)C2=O)C3=O)CC1 (mixture of isomers) [Example 59, (R/S)-3-{4-[1-(3-Carboxy-1-cyclopropyl-6-fluoro-4-oxo-1,4-dihydro-1-[1,8]naphthyridine-7-yl)-3-methoxyiminopyrrolidin-4-ylmethylamino]-piperidin-1-yl}rifamycin S]",0.008 to 0.063,2 to 32,0.125 to 8,0.06 to 32,0.06 to 16,0.004 to 0.5,0.5 to 64,0.004 to 0.5,0.008 to 0.125,0.008 to 0.063,0.125 to 2
"CO[C@H]1/C=C/O[C@@]2(C)Oc3c(C)c(O)c4c(c3C2=O)C(=O)C(N2CCN(c3cc5c(cc3F)c(=O)c(C(=O)O)cn5C3CC3)CC2)=C(NC(=O)/C(C)=C\C=C\[C@H](C)[C@H](O)[C@@H](C)[C@@H](O)[C@@H](C)[C@H](OC(C)=O)[C@@H]1C)C4=O [Example 4, 3-[4-(3-Carboxy-1-cyclopropyl-6-fluoro-4-oxo-1,4-dihydroquinolin-7-yl)piperazin-1-yl]rifamycin S]",0.008 to 0.063,2 to 32,0.125 to 8,0.06 to 32,0.06 to 16,0.004 to 0.5,0.5 to 64,0.004 to 0.5,0.008 to 0.125,0.008 to 0.063,0.125 to 2
